PubChem BioAssay (NCI)
Values joined by “and” are separate entries in the source; they are usually repeats but may differ in a detail not shown here. Equal entries are not always repeated.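 The compound was tested at five concentrations on cells cultured in 96-well plates, with a 48-hour exposure period. GI50 marks 50% less growth. TGI: total growth inhibition.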

What was measured:
Assay in all cases: NCI anticancer screen, dose series, 48 h
HCT-15 colon = system: HCT-15 colon
A498 renal = system: A498 renal
MDA-MB-435 = system: MDA-MB-435
SK-OV-3 ovarian = system: SK-OV-3 ovarian
A549 NSCLC = system: A549 NSCLC
HL-60(TB) leukemia = system: HL-60(TB) leukemia
KM12 colon = system: KM12 colon
NCI-H226 lung = system: NCI-H226 lung
T-47D breast = system: T-47D breast
MCF7 breast = system: MCF7 breast

Structure (SMILES) | GI50 (HCT-15 colon) | TGI (HCT-15 colon) | GI50 (A498 renal) | TGI (A498 renal) | GI50 (MDA-MB-435) | TGI (MDA-MB-435) | GI50 (SK-OV-3 ovarian) | TGI (SK-OV-3 ovarian) | GI50 (A549 NSCLC) | TGI (A549 NSCLC) | GI50 (HL-60(TB) leukemia) | TGI (HL-60(TB) leukemia) | GI50 (KM12 colon) | TGI (KM12 colon) | GI50 (NCI-H226 lung) | TGI (NCI-H226 lung) | GI50 (T-47D breast) | TGI (T-47D breast) | TGI (MCF7 breast) | GI50 (MCF7 breast)
CCn1cc(C(=O)N/N=C/c2ccccc2)c(=O)c2cc(F)c(N3CCNC(C)C3)c(F)c21 (centres undefined) | 1.45 µM | 2.82 µM | 1.9 µM | 3.38 µM | 1.91 µM | 3.36 µM | 1.81 µM | 3.25 µM | – | – | – | – | – | – | – | – | – | – | – | –
N.N.N.N.N.[Cl-].[Co+3].c1ccc(-c2nn[n-]n2)cc1 | > 100 µM | > 100 µM | – | – | – | – | > 100 µM | > 100 µM | > 100 µM | > 100 µM | > 100 µM | > 100 µM | > 100 µM | > 100 µM | > 100 µM | > 100 µM | – | – | – | –
c1ccc(CN2CCC3(CC2)SSC2(CCN(Cc4ccccc4)CC2)S3)cc1 | – | > 100 µM | – | – | – | > 100 µM | – | > 100 µM | – | > 100 µM | – | > 100 µM | – | > 100 µM | – | – | – | – | – | –
CCOC(=O)c1c2c(n(Cc3ccc(Cl)cc3Cl)c1C)-c1nc[nH]c1C(=O)C2=O | 11 µM | 23 µM | 19.7 µM | 36.1 µM | 13.5 µM | 30.1 µM | 19.9 µM | 34.2 µM | 10.9 µM | 23.1 µM | 2.18 µM | 5.14 µM | 5.87 µM | 19.4 µM | 14.2 µM | 31.5 µM | 1.65 µM | 5.03 µM | – | –
COc1cccc2c1C(=O)c1c(O)c3c(c(O)c1C2=O)CC(O)(C(O)CO)CC3OC1CC(N2CCOCC2)C(O)C(C)O1 (centres undefined) | 0.0536 µM | 0.515 µM and 1.36 µM | 0.0139 µM | – | – | 0.0568 µM | 0.0579 µM | – | – | 0.472 µM | 0.0352 µM and 0.0251 µM | 0.195 µM | – | 0.114 µM | < 0.001 µM | – | – | – | 0.0895 µM | –
C1COCCN1.C1COCCN1.NC1CCCCC1N.[Cl-].[Pt+2] (centres undefined) | – | – | > 100 µM | > 100 µM | – | – | > 100 µM | > 100 µM | > 100 µM | > 100 µM | > 100 µM | > 100 µM | > 100 µM | > 100 µM | > 100 µM | > 100 µM | – | – | – | –
COC1OC(CBr)C(OC(=O)c2ccccc2)C(O)C1Br (centres undefined) | – | > 100 µM | – | > 100 µM | – | – | – | – | – | > 100 µM | – | > 100 µM | – | > 100 µM | – | > 100 µM | – | – | – | –
C[C@]12CCC(=O)C=C1CC[C@@H]1C2CC[C@]2(C)Nc3c(cnn3-c3ccccc3)CC12 (some centres undefined) | – | > 100 µM | – | > 100 µM | – | – | – | > 100 µM | – | > 100 µM | – | > 100 µM | – | > 10 µM | – | > 100 µM | – | – | – | –
O=C(NC(=O)c1cn(CCN(CCO)C(=O)NCCCCCCNC(=O)N(CCO)CCn2cc(C(=O)NC(=O)OCc3ccccc3)c(=O)[nH]c2=O)c(=O)[nH]c1=O)OCc1ccccc1 | – | > 100 µM | – | – | – | – | – | > 100 µM | – | > 100 µM | – | > 100 µM | – | – | – | – | – | – | – | –
CCOC1=C2C(=O)OC(=O)C2C2CCCCC2=C1 (centres undefined) | – | > 100 µM | – | – | – | – | – | > 100 µM | – | > 100 µM | – | > 100 µM | – | > 100 µM | – | – | – | – | – | –
Cc1cc2c(C)nn(Cc3ccccc3)c2c(C(N)=O)c1C | – | > 100 µM | – | > 100 µM | – | – | – | > 100 µM | – | > 100 µM | – | – | – | > 100 µM | – | – | – | – | – | –
C=CCNC(=O)N(CCCC(NC(C)=O)C(=O)NCc1ccccc1)Cc1ccccc1 (centres undefined) | – | > 100 µM | – | > 100 µM | – | – | – | > 100 µM | – | > 100 µM | – | > 100 µM | – | > 100 µM | – | > 100 µM | – | – | – | –
COC1/C=C/C(C)C(C(C)C(OC)C(C)CCC(=O)C(C)C(C/C=C/N(C)C=O)OC)OC(=O)/C=C/C=C(\C)CC(OC)CC2=CC(=O)O[C@H](C2)C(C)C(OC)CC(OC)/C=C/C(C)C(OC)C1 (some centres undefined) | 0.0142 µM | 0.27 µM and 0.0329 µM | 0.0176 µM | 0.0508 µM | 0.0303 µM | 0.472 µM and 0.311 µM | 0.0382 µM | 0.229 µM and 0.0297 µM | 0.0185 µM | 0.271 µM and 0.284 µM | – | – | 0.00696 µM | – | 0.0215 µM | 0.129 µM | 0.168 µM | 0.488 µM | – | –
c1ccc(C(c2ccccc2)c2cccnc2)cc1 | – | > 100 µM | – | > 100 µM | – | – | – | > 100 µM | – | > 100 µM | – | – | – | > 100 µM | – | > 100 µM | – | – | – | –
CN1CCN(CCOc2ccc(-c3cnc4c(-c5ccc(C(F)(F)F)cc5)cnn4c3)cc2)CC1 | 1.02 µM | 2.31 µM | 1.37 µM | 2.76 µM | 1.61 µM | 3.02 µM | – | – | 1.63 µM | 3.3 µM | – | – | 1.71 µM | 3.21 µM | – | – | – | – | 2.86 µM | 1.21 µM
C1=CC=C2NCCCCCCCNC3=CC=CC=CC3=NCCCCCCCN=C2C=C1 | – | > 100 µM | – | – | – | – | – | – | – | > 100 µM | – | > 100 µM | – | > 100 µM | – | > 100 µM | – | – | – | –
Cc1cc(C(=C2C=CC(=Nc3ccccc3)C=C2)c2ccc(Nc3ccccc3)cc2)ccc1N | – | – | 0.543 µM | 1.86 µM | – | – | 1.52 µM | 2.9 µM | 0.599 µM | 1.69 µM | – | – | 0.312 µM | 1.05 µM | 0.446 µM | 1.72 µM | 0.527 µM | 1.93 µM | 1.37 µM | 0.346 µM
C#CC1(O)C(COP(=O)(O)OC(COCCCCCCCCCCCCCCCCCC)COP(=O)(O)OCC2OC(n3cc(F)c(=O)[nH]c3=O)CC2O)OC(n2ccc(N)nc2=O)C1O (centres undefined) | 0.134 µM and 0.335 µM | > 74.9 µM and 34.4 µM | 0.389 µM and 0.189 µM | 14 µM and 5.12 µM | – | 3.08 µM and 5.9 µM | – | 16.2 µM and > 100 µM | – | > 38.3 µM and 22.6 µM | 0.0952 µM and 0.21 µM | 17.9 µM and 11.7 µM | – | > 49.8 µM and 17 µM | – | 23.5 µM and 26 µM | – | – | – | –
CCCc1cc(=O)[nH]c(-n2nc(C)cc2C)n1 | 1.75 µM | > 100 µM | 11.7 µM | > 100 µM | 4.67 µM | 32.4 µM | 9.34 µM | > 100 µM | 2.71 µM | > 100 µM | 2.04 µM | 20.7 µM | 5.25 µM | > 100 µM | 5.99 µM | 55.6 µM | – | – | > 100 µM | 4.31 µM
COC(=O)/C(=N\NC(=O)C[N+](C)(C)C)C(C(=O)OC)C(=O)C(=O)Nc1ccccc1C(N)=O (centres undefined) | – | > 100 µM | – | > 100 µM | – | – | – | > 100 µM | – | > 100 µM | – | > 100 µM | – | > 100 µM | – | > 100 µM | – | – | – | –
O=C1Nc2nc3ccccc3n2N=C2CCCC12 (centres undefined) | – | > 100 µM | – | > 100 µM | – | – | – | > 100 µM | – | > 100 µM | – | – | – | > 100 µM | – | – | – | – | – | –
